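Compound exposure: 48 hours, 5 concentrations, 96-well plates. GI50 is the concentration that inhibits growth by half.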 Calls of active or inactive are those of the source. No stated cut-off is given here; in the data, active = GI50 up to about 1.1 µM and inactive = higher.

Consider twelve compounds from ChEMBL document CHEMBL1201862, “PubChem BioAssay data set” (2004).

Test systems include OVCAR-4; U-251; SF-268; CAKI-1; SNB-19; OVCAR-8; HOP-62; NCI-H460; HL-60; 786-0; HCT-15; KM12; SN12C; UACC-257; NCI-H522; EKVX; SR; SF-539.
Common to all, as to test: growth of human tumour cells (NCI), 48 h

For `Cn1ccnc1Cn1cc(-c2cccc(-c3cn[nH]c3)c2)cn1`, the GI50 in the assay with OVCAR-4 is 55.2 µM (inactive); with U-251 it was 84.5 µM (inactive); in the assay with SF-268, 44.6 µM (inactive); in the assay on CAKI-1, 15.2 µM (inactive); in the assay with SNB-19 it was > 100 µM (inactive); with OVCAR-8 it was > 100 µM (inactive). The GI50 with HOP-62 was > 100 µM (inactive); in the assay on NCI-H460 it was > 100 µM (inactive); in the assay with HL-60 it was > 100 µM (inactive); in the assay on 786-0 it was > 100 µM (inactive); in the assay on HCT-15, 79.3 µM; in the assay on KM12 it was > 100 µM (inactive). For the same compound, the GI50 in the assay with SN12C is 69.7 µM (inactive); with UACC-257, > 100 µM (inactive); in the assay on NCI-H522, 22.6 µM (inactive); in the assay on EKVX, 14.6 µM (inactive); with SR it was 80 µM (inactive).
In the case of `COc1ccc(OC2(c3cc(OC)ccc3OC)OC(=O)c3ccccc32)cc1` (configuration not stated), the GI50 in the assay with OVCAR-4, in the assay on U-251, in the assay with SF-268, in the assay on CAKI-1, in the assay on SNB-19 and with SF-539 was > 100 µM (inactive) throughout. Besides, the GI50 in the assay with OVCAR-8 was > 100 µM (inactive); with HOP-62, > 100 µM (inactive); in the assay on NCI-H460, > 100 µM (inactive); in the assay on HL-60 it was > 100 µM (inactive); in the assay on 786-0, > 100 µM (inactive); with HCT-15 it was above 100 µM. The GI50 in the assay with KM12, in the assay with SN12C, in the assay on UACC-257, in the assay on NCI-H522, in the assay with EKVX and with SR was > 100 µM (inactive) each time.
For `COc1cc2c(c(OC)c1OC)C(=O)NCCC2`, the GI50 in the assay on OVCAR-4, with U-251, in the assay with SF-268, in the assay with CAKI-1, in the assay on SNB-19 and with SF-539 was > 100 µM (inactive) each time. Besides, the GI50 with OVCAR-8 was > 100 µM (inactive); in the assay with HOP-62, > 100 µM (inactive); with NCI-H460, > 100 µM (inactive); in the assay with HL-60 it was > 63.1 µM (inactive); in the assay on 786-0, > 100 µM (inactive); with HCT-15, above 100 µM. Besides, the GI50 in the assay with KM12, in the assay on SN12C, in the assay with UACC-257, in the assay on NCI-H522, in the assay on EKVX and with SR was > 100 µM (inactive) throughout.
As to `Cc1nc2c(n1Cc1ccc(Cl)cc1)C(=O)c1ccccc1C2=O`, the GI50 with OVCAR-4 is > 75 µM (inactive); with U-251, 3.48 µM (inactive); in the assay on SF-268, 5.09 µM (inactive); in the assay on SNB-19, > 75 µM (inactive); in the assay on SF-539, 2.48 µM (inactive); in the assay on OVCAR-8, 8.99 µM (inactive). For the same compound, the GI50 is 20.8 µM (inactive) with HOP-62; 1.75 µM (inactive) with NCI-H460; 4.36 µM (inactive) with HL-60; 5.68 µM (inactive) in the assay with 786-0; 1.07 µM with HCT-15; > 75 µM (inactive) with KM12. Further, the GI50 in the assay on SN12C is > 75 µM (inactive); in the assay with UACC-257 it was > 75 µM (inactive); with NCI-H522, 5.52 µM (inactive); in the assay on EKVX, > 75 µM (inactive); in the assay with SR, 1.32 µM (inactive).
For `CCc1cccc(C)c1NC(=O)CC1C(=O)Nc2ccccc2[S+]1[O-]` (configuration not stated), the GI50 in the assay on OVCAR-4 was 28.3 µM (inactive); in the assay on U-251, 18.7 µM (inactive); in the assay with SF-268 it was 42.2 µM (inactive); in the assay on CAKI-1 it was 53.6 µM (inactive); with SNB-19, 48.4 µM (inactive); in the assay on SF-539, 29.2 µM (inactive). The GI50 with OVCAR-8 is 46 µM (inactive); with HOP-62 it was 71.4 µM (inactive); in the assay on NCI-H460 it was 33.6 µM (inactive); with HL-60, 28.4 µM (inactive); with 786-0, 47.5 µM (inactive); in the assay with HCT-15 it was 35.6 µM. Further, the GI50 in the assay on KM12 was 54.2 µM (inactive); in the assay on SN12C it was 50 µM (inactive); in the assay on UACC-257, 31.8 µM (inactive); in the assay on NCI-H522, 31.1 µM (inactive); in the assay with SR, 34 µM (inactive).
Turning to `COc1cc2c(cc1O)CN1CCC23C=C[C@@H](O)CC13` (some centres not stated), the GI50 in the assay on OVCAR-4 is 33.2 µM (inactive); with U-251, 46.7 µM (inactive); with SF-268 it was 59.6 µM (inactive); in the assay on CAKI-1 it was > 100 µM (inactive); with SNB-19 it was 55.6 µM (inactive); in the assay with OVCAR-8, 38.1 µM (inactive). For the same compound, the GI50 was > 100 µM (inactive) in the assay on HOP-62; 62.8 µM (inactive) in the assay with NCI-H460; 15.2 µM (inactive) in the assay on HL-60; 76.4 µM (inactive) with 786-0; 68.4 µM in the assay with HCT-15; 54 µM (inactive) in the assay on KM12. The GI50 in the assay on SN12C is 46.2 µM (inactive); in the assay with UACC-257 it was 79.4 µM (inactive); with NCI-H522, 52.4 µM (inactive); in the assay with EKVX, 65.8 µM (inactive); in the assay with SR, 40.6 µM (inactive).
For `O=C(COC(=O)c1cccc2c(=O)c3ccccc3[nH]c12)Nc1ccccc1`, the GI50 in the assay on OVCAR-4 is 45.6 µM (inactive); with U-251 it was 71.4 µM (inactive); in the assay on SF-268 it was > 100 µM (inactive); with CAKI-1, 45.8 µM (inactive); in the assay on SNB-19 it was > 100 µM (inactive); in the assay with SF-539, 51.8 µM (inactive). The GI50 was 37 µM (inactive) with OVCAR-8; > 100 µM (inactive) in the assay on HOP-62; 94.6 µM (inactive) in the assay on NCI-H460; 16.7 µM (inactive) with HL-60; > 100 µM (inactive) with 786-0; 21.1 µM (inactive) in the assay on KM12. Also, the GI50 was > 100 µM (inactive) with SN12C; 38.2 µM (inactive) with UACC-257; 25.3 µM (inactive) in the assay with NCI-H522; > 100 µM (inactive) with EKVX; 18.9 µM (inactive) in the assay on SR.
In the case of `COC(=O)[C@H]1[C@H]2C[C@@H]3c4[nH]c5cc(OC)ccc5c4CCN3C[C@H]2C[C@@H](OC(=O)c2cc(OC)c(OC)c(OC)c2)[C@@H]1OC` [RESERPINE], the GI50 with OVCAR-4 is 12.7 µM (inactive); with U-251, 15 µM (inactive); with SF-268, 28.1 µM (inactive); in the assay with CAKI-1, 18.1 µM (inactive); with SNB-19 it was 16.2 µM (inactive); in the assay with SF-539 it was 11.6 µM (inactive). Further, the GI50 in the assay with OVCAR-8 is 19.6 µM (inactive); in the assay with HOP-62, 12.6 µM (inactive); in the assay on NCI-H460, 18.9 µM (inactive); in the assay on HL-60, 14.2 µM (inactive); in the assay on 786-0 it was 14.2 µM (inactive); in the assay on HCT-15, 20.3 µM. Besides, the GI50 in the assay on KM12 is 18.4 µM (inactive); in the assay with UACC-257 it was 15.6 µM (inactive); in the assay with NCI-H522, 17.9 µM (inactive); with SR it was 6.12 µM (inactive).
For the compound `COc1ccccc1-n1c(N)c2c(C)c(-c3ccccc3)[nH]c2nc1=S`, the GI50 in the assay with OVCAR-4 is > 100 µM (inactive); in the assay with U-251, 54.3 µM (inactive); in the assay with CAKI-1, > 100 µM (inactive); in the assay on SNB-19, > 100 µM (inactive); with SF-539, 33.7 µM (inactive); in the assay with OVCAR-8 it was > 100 µM (inactive). For the same compound, the GI50 in the assay with HOP-62 is > 100 µM (inactive); with NCI-H460 it was > 100 µM (inactive); in the assay on HL-60, > 100 µM (inactive); in the assay on 786-0, > 100 µM (inactive); in the assay with HCT-15, above 100 µM; with KM12 it was > 100 µM (inactive). Moreover, the GI50 in the assay with SN12C, in the assay on UACC-257, with NCI-H522 and with SR was > 100 µM (inactive) throughout.
Consider `O=[N+]([O-])c1ccc2nc(/C(=N/Nc3ccccc3)C(O)c3ccc(Cl)cc3Cl)c(O)nc2c1` (configuration not stated), for which the GI50 with OVCAR-4, in the assay on U-251, in the assay on SF-268, in the assay on SF-539, in the assay with OVCAR-8 and in the assay on HOP-62 was > 100 µM (inactive) throughout. For the same compound, the GI50 in the assay on NCI-H460 is > 100 µM (inactive); in the assay on HL-60, 21 µM (inactive); in the assay on 786-0 it was > 100 µM (inactive); with HCT-15, above 100 µM; in the assay with KM12, 49.3 µM (inactive); with SN12C it was > 100 µM (inactive). For the same compound, the GI50 in the assay on UACC-257 is > 100 µM (inactive); in the assay on NCI-H522, 15.9 µM (inactive); with EKVX, > 100 µM (inactive); in the assay on SR, 29.6 µM (inactive).
With `COC(=O)C1C=CCON2CCc3c(n(C)c4ccccc34)C12` (configuration not stated), the GI50 with OVCAR-4, in the assay with U-251, with SF-268, in the assay on CAKI-1, with SNB-19 and in the assay with SF-539 was > 100 µM (inactive) in each case. Besides, the GI50 in the assay with HOP-62 is > 100 µM (inactive); in the assay on NCI-H460, > 100 µM (inactive); with HL-60 it was > 100 µM (inactive); with 786-0, > 100 µM (inactive); with HCT-15, above 100 µM; with KM12, > 100 µM (inactive). Also, the GI50 was > 100 µM (inactive) in the assay with SN12C, > 100 µM (inactive) with NCI-H522, 92.3 µM (inactive) with EKVX and > 100 µM (inactive) in the assay with SR.
For the compound `O=C1C(c2ccc([N+](=O)[O-])cc2)=[N+]([O-])c2ccccc21`, the GI50 with OVCAR-4 was 9.51 µM (inactive); in the assay on U-251, 16.5 µM (inactive); in the assay with SF-268, 40.8 µM (inactive); in the assay with CAKI-1, 42.2 µM (inactive); in the assay on SNB-19, < 0.01 µM (active); with SF-539, 37.9 µM (inactive). Further, the GI50 in the assay with OVCAR-8 was 4.31 µM (inactive); in the assay on HOP-62, 32.4 µM (inactive); with NCI-H460, 37 µM (inactive); in the assay on HL-60 it was 25.8 µM (inactive); in the assay with 786-0 it was > 100 µM (inactive); in the assay on HCT-15, 17.3 µM. Further, the GI50 with KM12 was 34.8 µM (inactive); in the assay on SN12C it was 24.5 µM (inactive); in the assay with NCI-H522, 8.57 µM (inactive); in the assay with EKVX, 32.8 µM (inactive); with SR, 23.7 µM (inactive).
